According to patent US9315459B2, “Crystalline forms of 4-[2-(4-methylphenylsulfanyl)-phenyl] piperidine” (priority 2006, dated 2016):

Tests used:
human 5-HT2A receptors = target: T1, human 5-HT2A receptors (Homo sapiens, UniProt P28223); assay: Functional assay, 5-HT evoked release of Ca2+ in CHO cells expressing human 5-HT2A receptors (FLIPR); assay type: cell-based; conditions: mammalian cells expressing human 5-HT2A
T1 construct: expressed in transfected cells; host or cells: CHO cells (functional assay)

[1] = target: T2, human alpha1A-7 receptors (Homo sapiens, UniProt P35348); assay: Functional assay, adrenaline evoked release of Ca2+ in CHO cells expressing human alpha1A-7 receptors; assay type: cell-based
T2 construct: expressed in transfected cells; host or cells: CHO cells
T2 sequence (P35348 1-466): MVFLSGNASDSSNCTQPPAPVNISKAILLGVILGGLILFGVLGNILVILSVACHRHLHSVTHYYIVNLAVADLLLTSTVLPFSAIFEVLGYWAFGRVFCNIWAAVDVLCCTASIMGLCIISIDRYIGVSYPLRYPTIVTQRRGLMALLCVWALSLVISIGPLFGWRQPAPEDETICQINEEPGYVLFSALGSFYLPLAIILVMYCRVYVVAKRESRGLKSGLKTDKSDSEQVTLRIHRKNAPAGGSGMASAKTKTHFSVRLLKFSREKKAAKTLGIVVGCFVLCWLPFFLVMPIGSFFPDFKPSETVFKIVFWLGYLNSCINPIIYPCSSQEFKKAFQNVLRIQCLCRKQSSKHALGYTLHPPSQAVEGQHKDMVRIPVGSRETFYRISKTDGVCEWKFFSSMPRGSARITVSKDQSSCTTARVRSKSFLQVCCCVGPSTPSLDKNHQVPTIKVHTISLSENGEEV
Description: These experiments were carried out essentially as described below. All cells were cultured in DMEM medium supplemented with 10% BCS, 4 mM L-glutamine (or 2 mM in the case of COS-7), and 100 units/ml penicillin plus 100 μg/ml streptomycin, at 37° C., in 5% CO2. Twenty-four hours prior to assays, CHO cells expressing the human alpha1A-7 receptors were seeded into 384-well black wall microtiter plates coated with poly-D-lysine. […] After excess dye was discarded, cells were washed in assay buffer and layered with a final volume equal to 45 μl/well (or 30 ul/well for antagonist assay). […] Basal fluorescence was monitored in a fluorometric imaging plate reader or FLIPR™ from Molecular Devices (Sunnyvale, Calif.) with an excitation wavelength of 488 nm and an emission range of 500 to 560 nm. Laser excitation energy was adjusted so that basal fluorescence readings were approximately 8,000 relative fluorescent units (RFU). Cells were then stimulated at room temperature with agonists diluted in assay buffer (15 μl), and RFU were measured at 1.5 second intervals over a period of 2.5 min. Maximum change in fluorescence was calculated for each well. Concentration-response curves derived from the maximum change in fluorescence were analyzed by nonlinear regression (Hill equation).

[2] = test system: extracellular levels of acetylcholine; assay: Microdialysis, extracellular acetylcholine in prefrontal cortex and ventral hippocampus of freely-moving rats (Example 2G); assay type: in vivo, rat; conditions: Sprague-Dawley rats, FIG. 25a+b
Description: The experiment was designed to evaluate the effects of compounds of the present invention on extracellular levels of acetylcholine in the prefrontal cortex and ventral hippocampus of freely-moving rats.
Male Sprague-Dawley rats, initially weighing 275-300 g, were used. The animals were housed under a 12-hr light/dark cycle under controlled conditions for regular in-door temperature (21±2° C.) and humidity (55±5%) with food and tap water available ad libitum.
Rats were anaesthetised with hypnorm/dormicum (2 ml/kg) and intracerebral guide cannulas (CMA/12) were stereotaxically implanted into the hippocampus, aiming to position the dialysis probe tip in the ventral hippocampus (co-ordinates: 5.6 mm posterior to bregma, lateral −5.0 mm, 7.0 mm ventral to dura or in the frontal cortex (co-ordinates: 3.2 mm anterior to bregma; lateral, 0.8 mm; 4.0 mm ventral to dura). Anchor screws and acrylic cement were used for fixation of the guide cannulas. The body temperature of the animals was monitored by rectal probe and maintained at 37° C. The rats were allowed to recover from surgery for 2 days, housed singly in cages. On the day of the experiment a microdialysis probe (CMA/12, 0.5 mm diameter, 3 mm length) was inserted through the guide cannula.
The probes were connected via a dual channel swivel to a microinjection pump. […]

C57/B6 mice = assay: Formalin model of neuropathic pain, time spent licking the injured paw; assay type: in vivo; conditions: summary in words of table 4
Description: The irritation caused by the formalin injection elicits a characteristic biphasic behavioural response, as quantified by the amount of time spent licking the injured paw. The first phase (˜0-10 minutes) represents direct chemical irritation and nociception, whereas the second (˜20-30 minutes) is thought to represent pain of neuropathic origin. The two phases are separated by a quiescent period in which behaviour returns to normal. Measuring the amount of time spent licking the injured paw in the two phases assesses the effectiveness of test compounds to reduce the painful stimuli. Eight C57/B6 mice (ca. 25 g) were tested per group. Table 4 below show the amount of time spent licking the injured paw in the two phases, i.e. 0-5 minutes and 20-30 minutes post formalin injection. The amount of compound administered is calculated as the free base.

T1 sequence (P28223 whole entry): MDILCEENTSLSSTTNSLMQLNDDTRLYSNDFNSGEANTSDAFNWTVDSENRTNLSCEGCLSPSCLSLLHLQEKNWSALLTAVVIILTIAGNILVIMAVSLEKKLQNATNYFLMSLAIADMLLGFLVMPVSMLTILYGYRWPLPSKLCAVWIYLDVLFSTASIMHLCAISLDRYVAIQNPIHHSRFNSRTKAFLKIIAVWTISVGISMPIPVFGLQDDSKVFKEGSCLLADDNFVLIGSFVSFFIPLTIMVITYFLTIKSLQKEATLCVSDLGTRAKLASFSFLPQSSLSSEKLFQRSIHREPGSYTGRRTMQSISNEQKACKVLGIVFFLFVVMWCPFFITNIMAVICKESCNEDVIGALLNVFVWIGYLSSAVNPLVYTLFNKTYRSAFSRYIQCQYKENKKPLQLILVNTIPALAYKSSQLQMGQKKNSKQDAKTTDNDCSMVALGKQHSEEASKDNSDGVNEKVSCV

- Mode of action at human 5-HT2A receptors (human 5-HT2A receptors): competitive antagonistic properties
- Functional profile, adrenaline evoked release of Ca2+ [1]: antagonists
SMILES: Cc1ccc(Sc2ccccc2C2CCNCC2)cc1 [compound I, 4-[2-(4-methylphenylsulfanyl)-phenyl]piperidine]
- Extracellular level of acetylcholine [2]: increase
- Effect in the first phase (direct chemical irritation and nociception) (C57/B6 mice): little effect
- Effect in the second phase (time spent licking paws) (C57/B6 mice): clear and dose dependent decrease
